Measurements taken from article PMC3258152 (Nucleic Acids Research, 2011).
pIC50: −log10 of the molar value.

Biological target: T1, CkoPE (Candidatus Korarchaeum cryptofilum, UniProt B1L4V6)
T1 sequence (B1L4V6 1-117): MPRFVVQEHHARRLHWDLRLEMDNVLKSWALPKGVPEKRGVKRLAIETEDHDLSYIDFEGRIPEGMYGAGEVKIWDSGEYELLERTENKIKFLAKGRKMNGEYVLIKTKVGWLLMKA
Experiment: […]'-resection of […]-labelled D22R2 single strand, urea-PAGE
Assay type: biochemical

`O=P(O)(O)O` [phosphate] was tested. Which pIC50 did it give?
The pIC50 was roughly 1.30.
